{"source": "paper PMC9338108", "about": "(Clinical Drug Investigation, 2022)", "key": {"[1]": {"test": "Safety assessment Study 114", "type": "in vivo, human", "details": "Study 114, N = 20"}, "[2]": {"test": "Safety assessment Study 106 Part A", "details": "for TEAEs related to individual study drugs: N = 33"}, "clinical": {"test": "clinical", "details": "human, plasma"}, "[3]": {"details": "cited from earlier work"}, "[4]": {"type": "in vivo, human"}, "[5]": {"test": "Safety assessment Study 106 Part B", "details": "N = 24"}, "cytochrome P450 3A4": {"system": "cytochrome P450 3A4", "details": "background statement; cited from earlier work"}, "[6]": {"details": "ref data on file, G1 Therapeutics; cited from earlier work"}, "[7]": {"system": "P-glycoprotein transporter", "details": "ref data on file, G1 Therapeutics; cited from earlier work"}, "[8]": {"type": "in vivo, human", "remark": "listed apart in the source"}, "[9]": {"details": "cited from earlier work", "remark": "listed apart in the source"}, "[10]": {"type": "in vivo, human", "remark": "listed apart in the source"}, "[11]": {"details": "metformin 1000 mg oral single dose alone, urine, N = 25, geometric mean (CV%)"}, "[12]": {"details": "all resolved without intervention"}, "[13]": {"details": "trilaciclib vs trilaciclib alone"}}, "note": "“And” between values parts separate entries of the source, which are not always exact repeats. Equal values may be shown once. Read-outs that look alike come from different tables or passages of the source.", "data": [{"smiles": "CCC(C)n1ncn(-c2ccc(N3CCN(c4ccc(OCC5COC(Cn6cncn6)(c6ccc(Cl)cc6Cl)O5)cc4)CC3)cc2)c1=O", "note": "(centres unmarked) [Itraconazole, itraconazole, reference compound]", "values": [{"measurement": "TEAEs related to individual study drugs", "setting": "[1]", "value": "2 (10.0) n (%)"}]}, {"smiles": "CN(C)C(=N)N=C(N)N", "note": "[Metformin, metformin]", "values": [{"measurement": "TEAEs related to individual study drugs", "setting": "[2]", "value": "7 (21.2) n (%)"}, {"measurement": "Tmax", "setting": "metformin 1000 mg oral single dose alone, N = 25, median (range)", "value": "2.50 (1.50–5.00) h"}, {"measurement": "Ae (total amount of drug excreted in urine)", "setting": "[11]", "value": "342 (25.1) mg"}, {"measurement": "Fe (percentage of drug excreted in urine)", "setting": "[11]", "value": "34.2 (25.1) %"}, {"measurement": "geometric mean AUC0–inf higher after coadministration with trilaciclib", "setting": "metformin vs metformin alone", "value": 64.6, "unit": "%"}, {"measurement": "geometric mean AUC0–last higher after coadministration with trilaciclib", "setting": "metformin vs metformin alone", "value": 66.0, "unit": "%"}, {"measurement": "geometric mean Cmax higher after coadministration with trilaciclib", "setting": "metformin vs metformin alone", "value": 79.8, "unit": "%"}, {"measurement": "Vd/F", "setting": "clinical; oral", "value": 556, "unit": "L"}, {"measurement": "AUC(0-inf)", "setting": "clinical; po, 1000 mg", "value": 11900, "unit": "ng·h/mL"}, {"measurement": "Cmax", "setting": "clinical; po, 1000 mg", "value": 1650, "unit": "ng/mL"}, {"measurement": "AUC0–24 as share of AUC0–inf", "setting": "[3]", "value": "approximately 95%"}]}, {"smiles": "Cc1ncc2n1-c1ccc(Cl)cc1C(c1ccccc1F)=NC2", "note": "[Midazolam, midazolam]", "values": [{"measurement": "TEAEs related to individual study drugs", "setting": "[2]", "value": "16 (48.5) n (%)"}, {"measurement": "Vd/F", "setting": "[4]; human, plasma, oral", "value": 658, "unit": "L"}, {"measurement": "AUC(0-inf)", "setting": "[4]; human, plasma, po, 5 mg", "value": 64.6, "unit": "ng·h/mL"}, {"measurement": "AUC(0-t)", "setting": "[4]; human, plasma, po, 5 mg", "value": 62.1, "unit": "ng·h/mL"}, {"measurement": "Cmax", "setting": "[4]; human, plasma, po, 5 mg", "value": 24.4, "unit": "ng/mL"}, {"measurement": "Vd/F", "setting": "[4]; human, plasma, po, 5 mg", "value": 635, "unit": "L"}, {"measurement": "half-life", "setting": "[4]; human, plasma, po, 5 mg", "value": 341, "unit": "min"}, {"measurement": "CL/F", "setting": "[4]; midazolam 5 mg oral single dose alone, N = 25, geometric mean (CV%)", "value": "77.4 (34.2) L/h"}, {"measurement": "Tmax", "setting": "[4]; midazolam 5 mg oral single dose alone, N = 25, median (range)", "value": "0.50 (0.25–1.50) h"}, {"measurement": "Cmax decrease after multiple IV doses of trilaciclib", "setting": "[4]; midazolam vs midazolam alone", "value": 16.6, "unit": "%"}, {"measurement": "geometric mean AUC0–inf higher after coadministration with trilaciclib", "setting": "[4]; midazolam vs midazolam alone", "value": 4.6, "unit": "%"}, {"measurement": "geometric mean AUC0–last higher after coadministration with trilaciclib", "setting": "[4]; midazolam vs midazolam alone", "value": 4.0, "unit": "%"}]}, {"smiles": "CO[C@H]1/C=C/O[C@@]2(C)Oc3c(C)c(O)c4c(O)c(c(/C=N/N5CCN(C)CC5)c(O)c4c3C2=O)NC(=O)/C(C)=C\\C=C\\[C@H](C)[C@H](O)[C@@H](C)[C@@H](O)[C@@H](C)[C@H](OC(C)=O)[C@@H]1C", "note": "[Rifampin, rifampin, reference compound]", "values": [{"measurement": "TEAEs related to individual study drugs", "setting": "[5]", "value": "19 (79.2) n (%)"}]}, {"smiles": "CN1CCN(c2ccc(Nc3ncc4cc5n(c4n3)C3(CCCCC3)CNC5=O)nc2)CC1", "note": "[Trilaciclib, trilaciclib]", "values": [{"measurement": "subjects reporting TEAEs of thrombophlebitis", "setting": "[2]; 25 subjects enrolled after adjustment of drug administration", "value": 24, "unit": "%"}, {"measurement": "TEAEs related to individual study drugs", "setting": "[2]", "value": "33 (100) n (%)"}, {"measurement": "subjects with Grade 3 TEAEs of neutropenia related to trilaciclib", "setting": "[2]; [12]", "value": 5, "unit": "n"}, {"measurement": "subjects with Grade 4 TEAEs of neutropenia related to trilaciclib", "setting": "[2]; [12]", "value": 1, "unit": "n"}, {"measurement": "subjects discontinued because of phlebitis in the arm related to trilaciclib administration", "setting": "[2]; initial eight subjects (Site 1)", "value": "eight"}, {"measurement": "TEAEs related to individual study drugs", "setting": "[5]", "value": "20 (83.3) n (%)"}, {"measurement": "time-dependent inhibitor of cytochrome P450 3A4", "setting": "cytochrome P450 3A4", "value": "time-dependent inhibitor of cytochrome P450 3A4"}, {"measurement": "unbound fraction in plasma", "setting": "[6]", "value": "approximately 30%"}, {"measurement": "TEAEs related to individual study drugs", "setting": "[1]", "value": "9 (45.0) n (%)"}, {"measurement": "substrate of the P-glycoprotein transporter", "setting": "[7]", "value": "substrate of the P-glycoprotein transporter"}, {"measurement": "Tmax", "setting": "[8]; human, plasma, intravenous", "value": 30, "unit": "min"}, {"measurement": "clearance", "setting": "[8]; human, plasma, intravenous", "value": 3520, "unit": "mL/min"}, {"measurement": "AUC(0-inf)", "setting": "[8]; human, plasma, iv, 240 mg/m2", "value": 2700, "unit": "ng·h/mL"}, {"measurement": "AUC(0-t)", "setting": "[8]; human, plasma, iv, 240 mg/m2", "value": 2670, "unit": "ng·h/mL"}, {"measurement": "Cmax", "setting": "[8]; human, plasma, iv, 240 mg/m2", "value": 1600, "unit": "ng/mL"}, {"measurement": "Tmax", "setting": "[8]; human, plasma, iv, 240 mg/m2", "value": 25.2, "unit": "min"}, {"measurement": "clearance", "setting": "[8]; human, plasma, iv, 240 mg/m2", "value": 2920, "unit": "mL/min"}, {"measurement": "half-life", "setting": "[8]; human, plasma, iv, 240 mg/m2", "value": 606, "unit": "min"}, {"measurement": "geometric mean AUC0–inf decrease with rifampin", "setting": "[8]; [13]", "value": "17.3% and 17%"}, {"measurement": "geometric mean AUC0–last decrease with rifampin", "setting": "[8]; [13]", "value": 17.3, "unit": "%"}, {"measurement": "geometric mean Cmax reduction with rifampin", "setting": "[8]; [13]", "value": 19.9, "unit": "%"}, {"measurement": "clearance", "setting": "[9]", "value": 158, "unit": "L/h"}, {"measurement": "mean terminal half-life (t1/2)", "setting": "[9]", "value": "approximately 14 h"}, {"measurement": "parent molecule recovered in the excreta", "setting": "[9]", "value": "less than 10%"}, {"measurement": "Tmax", "setting": "[10]; human, plasma, intravenous", "value": 28.8, "unit": "min"}, {"measurement": "AUC(0-inf)", "setting": "[10]; human, plasma, iv, 200 mg/m2", "value": 3120, "unit": "ng·h/mL"}, {"measurement": "AUC(0-t)", "setting": "[10]; human, plasma, iv, 200 mg/m2", "value": 3070, "unit": "ng·h/mL"}, {"measurement": "Cmax", "setting": "[10]; human, plasma, iv, 200 mg/m2", "value": 1770, "unit": "ng/mL"}, {"measurement": "Tmax", "setting": "[10]; human, plasma, iv, 200 mg/m2", "value": 24, "unit": "min"}, {"measurement": "clearance", "setting": "[10]; human, plasma, iv, 200 mg/m2", "value": 2120, "unit": "mL/min"}, {"measurement": "half-life", "setting": "[10]; human, plasma, iv, 200 mg/m2", "value": 547, "unit": "min"}, {"measurement": "geometric mean AUC0–inf decrease with itraconazole", "setting": "[10]; [13]", "value": "14.0% and 13.6%"}, {"measurement": "geometric mean AUC0–last decrease with itraconazole", "setting": "[10]; [13]", "value": 13.3, "unit": "%"}, {"measurement": "geometric mean Cmax decrease with itraconazole", "setting": "[10]; [13]", "value": 28.0, "unit": "%"}]}]}
